Test results as given in patent publication US20170056351A1, “COMPOSITION FOR INDUCING TUMOR IMMUNITY” (UNIVERSITY OF OCCUPATIONAL AND ENVIRONMENTAL HEALTH, JAPAN, priority 2014, published 2017).

Test system: 9L gliosarcoma cells
Experiment: In vivo radiosensitizing effect of ALA with multiple doses of ionizing radiation, tumor growth in rat subcutaneous tumor model
Description: As experimental animals, inbred male Fischer 344 rats (8 week old) (SLC, Inc. (Hamamatsu, Japan)) were used and were inoculated with 9L gliosarcoma cells. The inoculation was carried out in accordance with the procedures described in the following publications: Yamamoto J, Hirano T, Li S, Koide M, Kohno E, Inenaga C, et al.: Selective accumulation and strong photodynamic effects of a new photosensitizer, ATX-S10.Na (II), in experimental malignant glioma. Int J Oncol 27: 1207-13, 2005; Yamamoto J, Yamamoto S, Hirano T, Li S, Koide M, Kohno E, et al.: Monitoring of singlet oxygen is useful for predicting the photodynamic effects in the treatment for experimental glioma. Clin Cancer Res 12: 7132-9, 2006. In short, 9L gliosarcoma cells (1×10^6 cells) were transplanted into the skin on the dorsal side of each Fischer 344 rat, so as to produce a rat subcutaneous tumor model.
As described above, 9L gliosarcoma cells were inoculated into inbred Fischer 344 rats. […] Moreover, according to other previous studies, it had been reported that the dose of ALA by a single intravenous injection is 100 to 500 mg/kg body weight in the photodynamic therapy (PDT) using rodents (Yamamoto J, Yamamoto S, Hirano T, Li S, Koide M, Kohno E, et al.: Monitoring of singlet oxygen is useful for predicting the photodynamic effects in the treatment for experimental glioma. Clin Cancer Res 12:7132-9, 2006; Abels C, Heil P, Dellian M, Kuhnle G E, Baumgartner R, Goetz A E: In vivo kinetics and spectra of 5-aminolaevulinic acid-induced fluorescence in an amelanotic melanoma of the hamster. Br J Cancer 70: 826-33, 1994; Abels C, Fritsch C, Bolsen K, Szeimies R M, Ruzicka T, Goerz G, et al.: Photodynamic therapy with 5-aminolaevulinic acid-induced porphyrins of an amelanotic melanoma in vivo. J Photochem Photobiol B 40: 76-83, 1997; Bozzini G, Colin P, Betrouni N, Maurage C A, Leroy X, Simonin S, et al.: Efficiency of 5-ALA mediated photodynamic therapy on hypoxic prostate cancer: a preclinical study on the Dunning R3327-AT2 rat tumor model. Photodiagnosis Photodyn Ther 10: 296-303, 2013.). Accordingly, in the present study, the present inventors have determined the maximum dose of ionizing radiation to be 10 Gy, and the maximum dose of ALA to be 500 mg/kg body weight. […] Multiple intravenous injections into the caudal vein of rats had been technically difficult, but according to the experience of the present inventors, at maximum 5 times of injections had been possible. Accordingly, the present inventors have determined an optimal ionizing irradiation schedule, in which ionizing irradiation at a dose of 2 Gy/day and ALA multiple-dose administration at a dose of 100 mg/kg body weight/day were carried out for 5 consecutive days. After the subcutaneous tumor had grown to a size of 6 to 8 mm in diameter, the rats were randomly divided into four groups, and were then treated as follows:
control group (without treatments) (n=5); ALA multiple-dose administration group (n=5); ionizing radiation multiple-dose application group (RT) (n=7); and ALA multiple-dose administration+ionizing radiation multiple-dose application group. (5-ALA+RT) (n=7).
In a group to which only ALA was administered, only ALA (100 mg/kg) was administered to rats via caudal vein for 5 consecutive days. In a multiple-dose application group involving only ionizing radiation, rats were anesthetized and were then irradiated with an ionizing radiation of 2 Gy/day for 5 consecutive days (a total of 10 Gy). In an ALA multiple-dose administration+ionizing radiation multiple-dose application group, for 5 consecutive days, rats were intravenously administered with ALA (100 mg/kg), then 3 hours later, the rats were anesthetized, and an ionizing radiation of 2 Gy/day was applied to the subcutaneous tumor thereof in a dark place (a total of 10 Gy). Ionizing radiation was applied at a rate of 0.65 Gy/min, using an X-ray irradiation apparatus (MBR-1520R; HITACHI Engineering & Service Co., Ltd., Japan). […]

For `NCC(=O)CCC(=O)O` [ALA, 5-aminolevulinic acid], the “mean tumor growth inhibitory rate” value (16th day after treatment, ALA multiple-dose + ionizing radiation multiple-dose group compared with ionizing radiation multiple-dose group) was 42.5%, the “mean tumor volume, Day 0” value (ALA alone 100 mg/kg i.v. for 5 consecutive days, Day 0, mean ± SE, n = 5) was 143.9 ± 17.4 mm^3 and the “mean tumor volume, Day 8” value (ALA alone 100 mg/kg i.v. for 5 consecutive days, Day 8, mean ± SE, n = 5) was 865.4 ± 107.2 mm^3. The “mean tumor volume, Day 10” value (ALA alone 100 mg/kg i.v. for 5 consecutive days, Day 10, mean ± SE, n = 5) was 1403 ± 224.3 mm^3, the “mean tumor volume, Day 12” value (ALA alone 100 mg/kg i.v. for 5 consecutive days, Day 12, mean ± SE, n = 5) was 1842.6 ± 218.8 mm^3 and the “mean tumor volume, Day 14” value (ALA alone 100 mg/kg i.v. for 5 consecutive days, Day 14, mean ± SE, n = 5) was 2276.3 ± 192.8 mm^3. The “mean tumor volume, Day 16” value (ALA alone 100 mg/kg i.v. for 5 consecutive days, Day 16, mean ± SE, n = 5) was 2869.4 ± 267.9 mm^3 and the “growth of the tumor in comparison to the control group” value (ALA multiple-dose administration alone, 16th day, p=0.0448) was “inhibited”.
